The assay has as its target CDK2 (human) (UniProt P24941). Kind of assay: Enzyme Assay.
In general, IC50 refers to the concentration needed to halve the response being measured. The low end stands for higher potency, the high end for lower potency. Compound `O=C(NC[C@@H]1CCNC1)c1ccc(C(=O)Nc2ccc(-n3cncn3)cc2)s1` registered an IC50 not below 40 µM.

`O=C(Nc1ccc(-n2cncn2)c(F)c1)c1ccc(C(=O)Nc2ccccc2OC2CCCCC2)s1` gave an IC50 not below 40 µM.

Regarding `CN(C(=O)c1ccc(C(=O)Nc2ccc(-n3cncn3)cc2)s1)c1ccccc1`, the IC50 was not below 40 µM.

In turn, `COc1ccccc1NC(=O)c1ccc(C(=O)Nc2ccc(-n3cncn3)cc2)s1` yielded an IC50 not below 40 µM.

`O=C(Nc1ccc(-n2cncn2)cc1)c1ccc(C(=O)NC2Cc3ccccc3C2)s1` gave an IC50 not below 40 µM.

`Cc1cc(Cn2ccnc2)ccc1NC(=O)c1ccc(C(=O)Nc2ccc(-n3cncn3)cc2)s1` came in with an IC50 not above 1 µM.

The values are drawn from the Kinase Knowledgebase extract (Sharma et al. 2016).
